Common to all, as to experiment: NCI anticancer screen, dose series, 48 h
Experiment [1] concerns HOP-62 NSCLC.
Experiment [2] concerns K-562 leukemia.
Experiment [3] concerns MALME-3M melanoma.
Experiment [4] has as its system NCI-H226 lung.
Experiment [5] concerns NCI-H23 lung.
The test system of experiment [6] is NCI-H460 lung.
Experiment [7] has as its system OVCAR-5 ovarian.
For experiment [8], the system named is SNB-75 CNS.
Experiment [9] has as its system U251 CNS.
Experiment [10] deals with UACC-62 melanoma.

Molecules are shown by their SMILES.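 The compound was tested at five concentrations on cells cultured in 96-well plates, with a 48-hour exposure period. GI50 is the concentration that inhibits growth by half. TGI marks complete inhibition of growth.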 Where only a bound is given, the exact number is not on record here.

As to `O=C1c2ccccc2-c2c1c1ccccc1c(=O)n2CCO`, the TGI is 32.5 µM in experiment [1]; more than 100 µM in [2]; more than 100 µM in experiment [3]; more than 38.1 µM in experiment [4]; more than 61.9 µM in experiment [5]; 11.3 µM in experiment [6]. Besides, the TGI in experiment [7] was more than 100 µM; in experiment [8], more than 81 µM; in experiment [9], more than 100 µM; in [10] it was more than 59.5 µM.

In the case of `COc1cc[nH]c1/C=C1\C(=O)Nc2ccc(F)c(C#C[C@@H](O)[C@@H](N)[C@@H](C)O)c21`, the GI50 is 0.647 µM in [1]; 0.651 µM in [2]; 0.504 µM in [3]; 0.526 µM in [4]; 0.649 µM in experiment [5]; 0.515 µM in [6]. For the same molecule, the GI50 in experiment [7] is 0.673 µM; in experiment [8], 0.112 µM; in experiment [9] it was 0.445 µM; in experiment [10] it was 0.277 µM. Further, the TGI stood at 2 µM in experiment [1]; 3.44 µM in experiment [2]; 1.7 µM in [3]; 2.54 µM in experiment [4]; 3.33 µM in experiment [5]; 2.77 µM in experiment [6]. In addition, the TGI is 5.14 µM in experiment [7], 0.75 µM in experiment [8], 2.61 µM in [9] and 0.853 µM in [10].

For the molecule `O=[N+]([O-])c1ccc(N/N=C\c2cc(Cl)ccc2O)nc1`, the GI50 was 1.96 µM in experiment [1]; 2.09 µM in experiment [2]; 2.68 µM in [3]; 20.9 µM in experiment [4]; 0.541 µM in experiment [5]; 1.66 µM in experiment [6]. Besides, the GI50 in experiment [7] is 8.88 µM; in experiment [8], 1.55 µM; in experiment [9], 0.51 µM; in [10], 3.18 µM. Besides, the TGI in [1] was 11.9 µM; in experiment [2] it was more than 100 µM; in [3], 20.5 µM; in experiment [4], more than 100 µM; in [5] it was 9 µM; in [6], 13.6 µM. Also, the TGI in experiment [7] was more than 100 µM; in [8] it was 21.3 µM; in experiment [9], 12.1 µM; in experiment [10], 34.1 µM.

On to `CCCCCCCCCCCCc1ccc(C(=O)/C=C/C(=O)O)cc1`, for which the GI50 is 14 µM in experiment [1]; 2.13 µM in experiment [2]; 1.82 µM in experiment [3]; 1.59 µM in experiment [4]; 1.89 µM in experiment [5]; 10.8 µM in [6]. Further, the GI50 in experiment [7] is 10.3 µM; in experiment [8] it was 1.66 µM; in experiment [9], 5.63 µM; in [10], 1.71 µM. Moreover, the TGI in experiment [1] is 29.9 µM; in [2], 5.74 µM; in experiment [3], 3.6 µM; in experiment [4] it was 3.14 µM; in [5], 4.65 µM; in experiment [6] it was 27.1 µM. The TGI is 23.1 µM in experiment [7], 10.4 µM in experiment [8], 18.9 µM in experiment [9] and 3.66 µM in experiment [10].

`O=C1C=C[C@]2(C[C@@H](c3cccc(C(F)(F)F)c3)O[C@@H](c3cccc(C(F)(F)F)c3)O2)O1`: the GI50 in [1] was 5.08 µM; in experiment [2] it was 2.68 µM; in experiment [3] it was 2.27 µM; in [4] it was 2.18 µM; in experiment [5], 4.03 µM; in [6], 0.6 µM. The GI50 is 7.76 µM in [7], 2.79 µM in experiment [8], 2.58 µM in experiment [9] and 1.77 µM in experiment [10]. The TGI in experiment [1] was 18.2 µM; in [2], more than 100 µM; in experiment [3], 7.06 µM; in [4], 10.5 µM; in experiment [5], 18.7 µM; in experiment [6] it was 2.58 µM. The TGI is 26.1 µM in experiment [7], 16.1 µM in experiment [8], 12.9 µM in experiment [9] and 4.63 µM in experiment [10].

The values above are taken from PubChem BioAssay (NCI).
